Measurements as given in US8309557B2, “Pyrimidin-4-ylpropanedinitrile derivatives, processes for their preparation and their use as herbicides and plant growth regulators” (Bayer Intellectual Property GmbH, priority 2009, dated 2012).

Assays:
Assay type in all cases: in vivo
Amaranthus retroflexus [1] = assay: Herbicidal effect pre-emergence, AMARE; conditions: 320 g/hectare, visual grading after 3 weeks vs untreated controls
Excerpt: (§1) Seeds of mono- and dicotyledonous weed plants and crop plants are planted in wood-fiber pots in sandy loam and covered with earth. The compounds according to the invention, formulated in the form of wettable powders (WP) or as emulsion concentrates (EC), are then applied to the surface of the covering earth as aqueous suspension or emulsion at an application rate corresponding to 320 g/hectare at an application rate of 600 to 800 l of water/ha (converted) with the addition of 0.2% wetting agent.
(§2) Following treatment, the pots are placed in a greenhouse and kept under good growth conditions for the test plants. The visual grading of the damage to the test plants is carried out after a test time of 3 weeks in comparison to untreated controls (herbicidal effect in percent (%): 100% effect=plants have died off, 0% effect=as control plants).

Abutilon theophrasti [2] = assay: Herbicidal effect post-emergence, ABUTH
Protocol: (§3) Seeds of mono- and dicotyledonous weed plants and crop plants are planted in wood-fiber pots in sandy loam, covered with earth and grown in a greenhouse under good growth conditions. 2 to 3 weeks after sowing, the test plants are treated in the single-leaf stage. The compounds according to the invention, formulated in the form of wettable powders (WP) or as emulsion concentrates (EC), are then sprayed onto the green plant parts as aqueous suspension or emulsion using an application rate of 600 to 800 l of water/ha (converted) with the addition of 0.2% by weight of wetting agent. After the test plants had been in the greenhouse for ca. 3 weeks under optimum growth conditions, the effect of the preparations is scored visually in comparison with untreated controls (herbicidal effect in percent (%): 100% effect=plants have died off, 0% effect=as control plants).

Echinochloa crus-galli = assay: Herbicidal effect post-emergence, ECHCG
Protocol: as §3

Veronica persica [3] = assay: Herbicidal effect pre-emergence, VERPE; conditions: 320 g/hectare, visual grading after 3 weeks vs untreated controls
Excerpt: as §1, §2

Veronica persica [4] = assay: Herbicidal effect post-emergence, VERPE
Protocol: as §3

Amaranthus retroflexus [5] = assay: Herbicidal effect post-emergence, AMARE
Protocol: as §3

Abutilon theophrasti [6] = assay: Herbicidal effect pre-emergence, ABUTH; conditions: 320 g/hectare, visual grading after 3 weeks vs untreated controls
Excerpt: as §1, §2

Matricaria inodora = assay: Herbicidal effect post-emergence, MATIN
Protocol: as §3

Viola tricolor [7] = assay: Herbicidal effect post-emergence, VIOTR
Protocol: as §3

[8] = tested on: Polygonum (Fallopia) convolvulus; assay: Herbicidal effect post-emergence, POLCO
Protocol: as §3

Setaria viridis [9] = assay: Herbicidal effect post-emergence, SETVI
Protocol: as §3

Viola tricolor [10] = assay: Herbicidal effect pre-emergence, VIOTR; conditions: 320 g/hectare, visual grading after 3 weeks vs untreated controls
Excerpt: as §1, §2

Stellaria media = assay: Herbicidal effect post-emergence, STEME
Protocol: as §3

Setaria viridis [11] = assay: Herbicidal effect pre-emergence, SETVI; conditions: 320 g/hectare, visual grading after 3 weeks vs untreated controls
Excerpt: as §1, §2

[12] = tested on: Tripleurospermum inodorum; assay: Herbicidal effect pre-emergence, MATIN; conditions: 320 g/hectare, visual grading after 3 weeks vs untreated controls
Excerpt: as §1, §2

SMILES	Effect in % in respect of stated plant, AMARE (Amaranthus retroflexus [1]) [%]	Effect in % in respect of stated plant, ABUTH (Abutilon theophrasti [2]) [%]	Effect in % in respect of stated plant, ECHCG (Echinochloa crus-galli) [%]	Effect in % in respect of stated plant, VERPE (Veronica persica [3]) [%]	Effect in % in respect of stated plant, VERPE (Veronica persica [4]) [%]	Effect in % in respect of stated plant, AMARE (Amaranthus retroflexus [5]) [%]	Effect in % in respect of stated plant, ABUTH (Abutilon theophrasti [6]) [%]	Effect in % in respect of stated plant, MATIN (Matricaria inodora) [%]	Effect in % in respect of stated plant, VIOTR (Viola tricolor [7]) [%]	Effect in % in respect of stated plant, POLCO [8] [%]	Effect in % in respect of stated plant, SETVI (Setaria viridis [9]) [%]	Effect in % in respect of stated plant, VIOTR (Viola tricolor [10]) [%]	Effect in % in respect of stated plant, STEME (Stellaria media) [%]	Effect in % in respect of stated plant, SETVI (Setaria viridis [11]) [%]	Effect in % in respect of stated plant, MATIN [12] [%]
Cc1ccc(-c2nc(N)c(Cl)c(C(C#N)C#N)n2)cc1.N [Compound 296]	100	80	80	100	90	90	80	90	–	–	–	–	–	–	–
C[N+](C)(C)C.N#C[C-](C#N)c1nc(-c2ccc(Cl)cc2)nc(N)c1Cl [Compound 312]	95	85	85	100	95	90	–	90	80	90	90	100	80	90	–
N.N#CC(C#N)c1nc(-c2ccc(Br)cc2)nc(N)c1Cl [Compound 321]	90	90	90	100	90	100	–	100	90	100	80	100	80	–	–
N.N#CC(C#N)c1nc(-c2ccc(Cl)c(C(F)(F)F)c2)nc(N)c1Cl [Compound 335]	–	–	–	100	–	80	–	80	–	–	–	80	–	–	80
N.N#CC(C#N)c1nc(-c2ccc(Br)cc2F)nc(N)c1Cl [Compound 392]	80	90	80	100	90	100	–	100	90	90	80	100	90	–	–
CNc1nc(-c2ccc(Cl)cc2)nc(C(C#N)C#N)c1Cl [Ex. No. 41, [5-Chloro-2-(4-chlorophenyl)-6-(methylamino)pyrimidin-4-yl]propanedinitrile]	–	–	–	–	–	–	–	–	–	–	–	100	–	–	80
N#C[C-](C#N)c1nc(-c2ccc(Cl)cc2)nc(N)c1Cl.[Na+] [Ex. No. 304, Sodium [6-amino-5-chloro-2-(4-chlorophenyl)pyrimidin-4-yl](dicyano)methanide]	90	80	–	100	–	100	–	90	80	80	–	–	80	80	80
Cc1ccc(-c2nc(N)c(Cl)c(C(C#N)C#N)n2)cc1 [compound 12]	100	80	80	100	90	90	80	80	–	80	–	–	–	–	–
